Test results: PMC9362525 (Diabetologia, 2022)
Like-named read-outs stand apart in the source and are kept apart here. Each block holds one compound with its values, some of them ahead of it.

Tests used:
[1] = system: HFD-fed C57BL/6J mice; format: in vivo, mouse; details: 8 weeks
[2] = system: participants with type 2 diabetes; format: in vivo, human; details: 32 weeks
[3] = system: patients with T2D and established CVD; format: in vivo, human; details: all baseline groups
[4] = system: HHTg-OVX rats; format: in vivo, rat; details: 12.5 μg/kg b.wt./day s.c., 12 weeks
[5] = system: db/db mice; format: in vivo, mouse
[6] = system: patients with type 2 diabetes; format: in vivo, human; details: Ipr 50 mg or Met 1000 mg, 24 weeks, n=15 per group
[7] = system: human islets; format: cell-based
[8] = system: human β-cells; format: cell-based
[9] = system: perifused human islets; format: cell-based
[10] = system: patients with T2D and metabolic syndrome; set-up: species or system human; details: in vivo
[11] = system: patients with T2DM; format: in vivo, human
[12] = format: in vivo, mice; details: 40 mg/kg
[13] = system: cultured subcutaneous adipocytes; format: cell-based; details: preliminary data
[14] = system: thromboxane receptor, primary human myotubes; format: cell-based
[15] = system: isolated mouse skeletal muscle (EDL and soleus); format: cell-based; details: [14C]-glucose, n=7-8
[16] = system: mice; format: in vivo, mouse; details: acute administration, n=7-8
[17] = set-up: species or system human; details: in vivo
[18] = system: LADA individuals; details: for GAD65 stimulation index of PBMC proliferation: LADA, median (Q1, Q3)
[19] = system: LADA individuals; details: corresponding findings in type 1 diabetes (n=56), ref not given, cited from earlier work

Compound: OC[C@H]1O[C@@H](c2ccc(Cl)c(Cc3ccc(O[C@H]4CCOC4)cc3)c2)[C@H](O)[C@@H](O)[C@@H]1O [EMPA, Empagliflozin]
final body weight ([1]; 10 mg/kg/day oral gavage, HFD): 44.87 ± 1.42 g
FFA ([1]; 10 mg/kg/day): 746.30 ± 56.59 µmol/L
UACR ([1]; 10 mg/kg/day): 21.01 ± 1.99 µg/µmol
fat mass ([1]; 10 mg/kg/day): 11.75 ± 0.78 g
fat/weight ([1]; 10 mg/kg/day): 26.08 ± 1.09%
triglyceride ([1]; 10 mg/kg/day): 29.31 ± 2.71 mg/dL
change in GFR from baseline and compared to placebo [2]: -18 mL/min
OR (95% CI) for improved risk vs placebo [3]: 1.56 (1.30, 1.86)
OR (95% CI) for worsening risk vs placebo [3]: 0.70 (0.62, 0.78)

Compound: C[C@]12CC[C@@H]3c4ccc(O)cc4CC[C@H]3[C@@H]1CC[C@@H]2O [Estradiol, 17-β estradiol]
change in ectopic TAG deposition, kidneys [4]: -23%
change in ectopic TAG deposition, liver [4]: -16%

Compound: C[C@H]1N=C(N(C)C)N=C(N)N1 [Imeglimin]
random blood glucose levels vs vehicle ([5]; 150 mg/kg B.I.D. oral, age 6-10 weeks): significantly lower
loss of RI intensity in the pancreas (SPECT/CT) ([5]; at 10 weeks): significantly attenuated

Compound: CN(C)C(=N)N=C(N)N [Met, Metformin]
change in visceral fat area [6]: -4.7%
caspase 3/7 activity ([7]; cytokines 48 h plus 2.4 μg/ml): 1.2±0.1
insulin stimulation index ([7]; cytokines (IL-1β 50 U/ml + IFN-γ 1000 U/ml) 48 h plus 2.4 μg/ml, mean±SEM): 4.7±1.6

Compound: NC(=O)N1c2ccccc2C=Cc2ccccc21 [carbamazepine]
cytokine- and ER stress-induced β-cell death [8]: protected
glucose-stimulated insulin secretion [9]: moderately reduced

Compound: CC(C)OC(=O)C(C)(C)Oc1ccc(C(=O)c2ccc(Cl)cc2)cc1 [fenofibrate]
HR for primary outcome, patients with retinopathy at baseline [10]: 0.86

Compound: Cc1ccc(S(=O)(=O)NC(=O)NN2CC3CCCC3C2)cc1 (stereo not shown) [gliclazide]
incidence of severe hypoglycaemia ([11]; female): 0.75 %/year
incidence of severe hypoglycaemia ([11]; male): 0.41 %/year
insulin secretion after the OGTT [12]: increased

Compound: COc1ccc(C(=O)O[C@H]2CC[C@@]3(C)[C@@H]4CC[C@H]5[C@]6(O)C[C@H](O)[C@@]7(O)[C@@H](CN8C[C@@H](C)CC[C@H]8[C@@]7(C)O)[C@]6(O)C[C@@]53O[C@]24O)cc1OC [veratridine]
cytokine- and ER stress-induced β-cell death [8]: increased cell death
glucose-stimulated insulin secretion [9]: increased insulin secretion

Compound: Fas ligand [FasL]
isoproterenol-induced UCP1 protein levels [13]: decreased

increase in glucose incorporation into glycogen ([14]; n=4): +398%
increase in glucose oxidation ([14]; n=5): +28%
increase in glucose uptake ([14]; n=5): +53%
Compound: I-BOP
increase in ex-vivo skeletal muscle glucose oxidation [15]: +118%
change in glucose tolerance AUC [16]: -34%

Rates of hypoglycaemia at <3.9 to ≥3.0 mmol/L and <3.0 mmol/L [17]: did not differ between groups
Compound: insulin glargine 300 U/mL [Gla-300]

Compound: rhGAD65
GAD65 stimulation index of PBMC proliferation ([18]; 2 months from baseline, 3 injections of 4 μg): 2.16 (1.25, 3.06)
GAD65 stimulation index of PBMC proliferation ([18]; 5 months from baseline): 2.34 (1.81, 3.58)
postprandial 2 hour C-peptide ([18]; in vivo): 1.45 (1.25, 1.85) nmol/L
serious adverse events ([18]; interim analysis at 5 months): no treatment-related serious adverse events
GAD65 stimulation index of PBMC proliferation ([19]; 2 months): 2.77 (1.96, 6.05)
GAD65 stimulation index of PBMC proliferation ([19]; 5 months): 3.19 (2.02, 6.19)
